Results: US20260174786A1, “A NITROGEN-CONTAINING SPIROCYCLIC COMPOUND, PHARMACEUTICAL COMPOSITION AND USE THEREOF” (Prime Gene Therapeutics Co., Ltd., priority 2022, published 2026)

Legend:
[1] = Parallel artificial membrane permeability test (Lipid PAMPA); assay type: in vitro ADME; settings: for recovery at 16 h, 10 μM: pH 7.4, test concentration 10 μM, read-out: rate of recovery %; for −LOG Pe / Papp at 16 h, 10 μM: test concentration 10 μM; for Papp at 16 h, 10 μM: pH 7.4, 16 hours, read-out: Effective penetration rate Pe
Method: 1. Preparing the test compound in 10 mM DMSO and diluting 1000 fold to 10 μM with PBS. 2. Ultrasonic treating lecithin in dodecane at a rate of 18 mg/ml. 3. Adding 300 μL/well of 10 μM test compound solution into the donor chamber (bottom) in triplicate. 4. Adding 5 μL/well lecithin/dodecane to the receptor chamber (top), and then adding 300 μL/well PBS (pH=7.4) to the receptor chamber within 10 minutes. 5. Transferring 50 μL of 10 μM test compound onto a sample plate containing 200 μL of cold methanol, with IS * being C0. 6. Inserting the receptor chamber into the donor chamber and incubating at 25° C. for 16 hours. 7. After 16 hours of incubation, transferring 50 μL from the receptor and donor compartments to a sample plate containing 200 μL of cold methanol and IS *. 8. Centrifuging the sample plate at 4° C. and 3220 g for 40 minutes. 9. Transferring 100 μL of supernatant to an analysis plate containing an appropriate volume of H2O for LC-MS/MS analysis. 10. Data analysis.

hTRPV3 = target: T1, hTRPV3 (Homo sapiens, UniProt Q8NET8); experiment: Whole cell patch clamp inhibition rate test on HEK-293 cells instantaneously expressing TRPV3; assay type: cell-based; settings: HEK293
T1 construct: expressed in transfected cells; host or cells: HEK-293
T1 sequence (Q8NET8 1-790): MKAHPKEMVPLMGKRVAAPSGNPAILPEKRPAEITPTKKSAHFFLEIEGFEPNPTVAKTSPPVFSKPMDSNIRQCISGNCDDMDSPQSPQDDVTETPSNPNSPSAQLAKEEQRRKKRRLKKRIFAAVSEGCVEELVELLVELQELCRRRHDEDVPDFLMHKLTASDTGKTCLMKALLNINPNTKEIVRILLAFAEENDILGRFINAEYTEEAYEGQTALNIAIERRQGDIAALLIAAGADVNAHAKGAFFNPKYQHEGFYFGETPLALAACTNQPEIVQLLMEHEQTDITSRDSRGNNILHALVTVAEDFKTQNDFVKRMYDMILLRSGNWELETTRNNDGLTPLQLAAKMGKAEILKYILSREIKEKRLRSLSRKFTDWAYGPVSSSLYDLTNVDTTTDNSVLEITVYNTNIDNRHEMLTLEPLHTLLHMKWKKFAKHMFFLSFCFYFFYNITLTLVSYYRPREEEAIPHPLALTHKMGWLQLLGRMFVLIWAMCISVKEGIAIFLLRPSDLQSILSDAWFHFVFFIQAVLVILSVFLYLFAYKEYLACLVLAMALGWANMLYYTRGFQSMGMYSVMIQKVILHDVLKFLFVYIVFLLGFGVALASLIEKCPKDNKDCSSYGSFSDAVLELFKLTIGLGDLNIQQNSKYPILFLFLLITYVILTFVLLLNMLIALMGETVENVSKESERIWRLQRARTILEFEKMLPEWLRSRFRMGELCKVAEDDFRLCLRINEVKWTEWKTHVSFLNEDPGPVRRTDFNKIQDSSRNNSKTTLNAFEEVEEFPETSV
Method in brief: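 HEK-293 cells transiently transfected with TRPV3, recorded next-but-one day by whole-cell patch clamp at room temperature: holding −80 mV, ramp −100 to 100 mV over 100 ms every 5 s, peak current monitored. Ascending concentrations perfused, 5 min each; each cell its own control, at least two cells per concentration.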

hTRPV4 = hTRPV4 (Homo sapiens, UniProt Q9HBA0); experiment: Inhibition rate on different hTRPs: hTRPV4; assay type: cell-based
[2] = hTRPV3, single concentration 0.3 μM

Sequence of hTRPV4 (Q9HBA0 whole entry): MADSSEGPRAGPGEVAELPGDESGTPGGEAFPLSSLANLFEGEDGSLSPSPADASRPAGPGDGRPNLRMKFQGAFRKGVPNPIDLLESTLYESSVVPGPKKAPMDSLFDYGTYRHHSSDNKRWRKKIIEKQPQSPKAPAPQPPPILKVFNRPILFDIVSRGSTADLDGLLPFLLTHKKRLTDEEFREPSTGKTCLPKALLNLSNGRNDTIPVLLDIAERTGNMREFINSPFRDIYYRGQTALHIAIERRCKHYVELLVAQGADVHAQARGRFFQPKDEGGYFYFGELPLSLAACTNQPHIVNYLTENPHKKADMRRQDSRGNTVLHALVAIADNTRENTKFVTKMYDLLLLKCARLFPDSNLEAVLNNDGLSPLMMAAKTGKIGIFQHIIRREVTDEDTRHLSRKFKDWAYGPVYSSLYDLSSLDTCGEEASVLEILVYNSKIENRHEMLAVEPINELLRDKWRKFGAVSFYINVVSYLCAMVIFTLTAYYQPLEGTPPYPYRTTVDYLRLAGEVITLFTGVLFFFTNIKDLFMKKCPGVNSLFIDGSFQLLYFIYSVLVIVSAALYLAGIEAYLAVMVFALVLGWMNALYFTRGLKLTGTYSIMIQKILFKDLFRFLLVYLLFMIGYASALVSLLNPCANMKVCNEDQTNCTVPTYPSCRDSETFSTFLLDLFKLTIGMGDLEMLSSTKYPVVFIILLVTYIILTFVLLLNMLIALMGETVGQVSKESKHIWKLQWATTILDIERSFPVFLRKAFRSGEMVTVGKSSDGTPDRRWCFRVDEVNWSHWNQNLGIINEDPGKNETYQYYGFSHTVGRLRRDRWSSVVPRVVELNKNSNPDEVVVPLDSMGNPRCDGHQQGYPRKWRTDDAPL

Row | recovery at 16 h, 10 μM [1] | −LOG Pe [1] | Papp at 16 h, 10 μM [1] | inhibition at 0.3 µM (hTRPV3; [2]) | inhibition at 0.3 µM (hTRPV3; hTRPV3, 0.3 μM) | inhibition at 0.3 µM (hTRPV4; hTRPV4, 0.3 μM) | Selectivity ratio (hTRPV4; inhibition rate on TRPV3 / inhibition rate on hTRPV4, 0.3 μM) | SMILES
1 | 16.9% | 4.85 | 14.1 ×10⁻⁶ cm/s | 70 to 100% | – | – | – | O=C(c1ccc(F)cn1)N1CCC2(CC(O)c3cc(-c4ccccc4C4CC4)ccc32)C1 (centres unmarked) [Example 15, (5-(2-cyclopropylphenyl)-3-hydroxy-2,3-dihydrospiro[indene-1,3′-pyrrolidine]-1′-yl)(5-fluoropyridin-2-yl) ketone]
2 | 18.8% | 4.79 | 16.3 ×10⁻⁶ cm/s | 70 to 100% | 89.6% | 29.3% | 3.1X | O=C(c1ccc(F)cn1)N1CC[C@@]2(C[C@@H](O)c3cc(-c4ccccc4C4CC4)ccc32)C1 [Example 21, ((1S,3R)-5-(2-cyclopropylphenyl)-3-hydroxy-2,3-dihydrospiro[indene-1,3′-pyrrolidine]-1′-yl)(5-fluoropyridin-2-yl)ketone]
